# Measured values taken from patent US9861104B2, “Method for producing an aqueous suspension concentrate formulation of a pyripyropene insecticide” (BASF SE, priority 2012, dated 2018).
# Assay: Conversion of the aqueous slurry into form B, followed by XRPD
# Format: physicochemical
# Settings: 30 parts Insecticide A / 70 parts water, stirred
# Description: The recorded 2θ values were used to calculate the stated interplanar spacings d. The intensity of the peaks (y-axis: linear intensity counts) is plotted versus the 2θ angle (x-axis in degrees 2θ). The formulation was prepared as follows: • (a) 30 parts by weight of Insecticide A, in the form of a powder, and 70 parts by weight of water were mixed in a vessel to obtain an aqueous slurry. The particle diameter of the particles was in the range 30-800 μm. […] The temperature of grinding head was controlled at 5° C. The milling was stopped when an average particle size of 1.5-2 μm (volume average) had been achieved (measured with Malvern Mastersizer 2000). To the thus obtained suspension the remaining antifoaming agent, the preservative and the thickener and water were added to with stirring to ensure homogeneous distribution of components. The amount of water was chosen that the final concentration of the pyripyropene derivative in the formulation was 100 g/l.
compound,measurement,setting,value
C[C@]1(COC(=O)C2CC2)[C@@H]2C[C@H](O)[C@@]3(C)Oc4cc(-c5cccnc5)oc(=O)c4[C@H](O)[C@@H]3[C@@]2(C)CC[C@@H]1OC(=O)C1CC1 [Insecticide A],Conversion time (conversion of at least 90% into form B),20° C.,<190 h
same,Conversion time (conversion of at least 90% into form B),40° C.,<48 h
same,Conversion time (conversion of at least 90% into form B),60° C.,12 h
